Assay results: ChEMBL document CHEMBL3885861, “Open TG-GATES”

Species on record: Rattus norvegicus
Experiment: Open TG-GATES - Regimen: Single
Type: toxicity, organism-based, Sprague-Dawley
Set-up: regimen Single, gender Male, age 6 weeks
Conditions: in vivo, po, 0 mg/kg, route gavage, dose level Control; for APTT / Bas / Eos / Fbg / Hb / Ht / Lym / MCH / MCHC / MCV / Mono / Neu / PT / RBC / Ret / WBC / Plat: tissue Blood; for KIDNEY_L / KIDNEY_R / KIDNEY_TOTAL: tissue Kidney; for LIVER: tissue Liver

C[C@H](CS)C(=O)N1CCC[C@H]1C(=O)O [CAPTOPRIL]
TERMINAL_BW (3 h): 220.9 g | APTT (3 h): 16.4 s | Bas (3 h): 0% | Eos (3 h): 1.2% | Fbg (3 h): 204.8 mg/dL | Hb (3 h): 13.1 g/dL | Ht (3 h): 39.7% | Lym (3 h): 79.2% | MCH (3 h): 21.4 pg | MCHC (3 h): 33.1% | MCV (3 h): 64.5 fL | Mono (3 h): 6% | Neu (3 h): 14% | PT (3 h): 11.7 s | RBC (3 h): 615.2 x10_4/ul | Ret (3 h): 7.5% | WBC (3 h): 110.3 x10_2/uL | KIDNEY_L (3 h): 0.9 g | KIDNEY_R (3 h): 1 g | KIDNEY_TOTAL (3 h): 1.9 g | ALP (3 h, tissue Plasma): 902.4 IU/L | ALT (3 h, tissue Plasma): 34 IU/L | AST (3 h, tissue Plasma): 65.2 IU/L | BUN (3 h, tissue Plasma): 13 mg/dL | CRE (3 h, tissue Plasma): 0.5 mg/dL | DBIL (3 h, tissue Plasma): 0.018 mg/dL | GLC (3 h, tissue Plasma): 193.6 mg/dL | IP (3 h, tissue Plasma): 9.9 mg/dL | K (3 h, tissue Plasma): 5.1 meq/L | LDH (3 h, tissue Plasma): 84.6 IU/L | Na (3 h, tissue Plasma): 137.6 meq/L | PL (3 h, tissue Plasma): 127.6 mg/dL | RALB (3 h, tissue Plasma): 3.7 g/dL | TBIL (3 h, tissue Plasma): 0.4 mg/dL | TC (3 h, tissue Plasma): 70.8 mg/dL | TG (3 h, tissue Plasma): 42.6 mg/dL | TP (3 h, tissue Plasma): 5.4 g/dL | gamma-GTP (3 h, tissue Plasma): 1.6 IU/L | TERMINAL_BW (6 h): 220.4 g | APTT (6 h): 15.7 s | Bas (6 h): 0% | Eos (6 h): 1.2% | Hb (6 h): 13.5 g/dL | Ht (6 h): 41.1% | Lym (6 h): 76.8% | MCH (6 h): 21.1 pg | MCHC (6 h): 32.9% | MCV (6 h): 64.3 fL | Mono (6 h): 6.2% | Neu (6 h): 16.2% | PT (6 h): 11.8 s | Plat (6 h): 118.9 x10_4/uL | RBC (6 h): 639.6 x10_4/ul | Ret (6 h): 7.5% | WBC (6 h): 124.4 x10_2/uL | KIDNEY_L (6 h): 1 g | KIDNEY_R (6 h): 1 g | KIDNEY_TOTAL (6 h): 2 g | ALP (6 h, tissue Plasma): 725.4 IU/L | ALT (6 h, tissue Plasma): 31.2 IU/L | AST (6 h, tissue Plasma): 58.4 IU/L | BUN (6 h, tissue Plasma): 11.8 mg/dL | CRE (6 h, tissue Plasma): 0.6 mg/dL | DBIL (6 h, tissue Plasma): 0.012 mg/dL | GLC (6 h, tissue Plasma): 198.2 mg/dL | K (6 h, tissue Plasma): 4.7 meq/L | LDH (6 h, tissue Plasma): 75.6 IU/L | Na (6 h, tissue Plasma): 139 meq/L | PL (6 h, tissue Plasma): 135.6 mg/dL | RALB (6 h, tissue Plasma): 3.6 g/dL | TBIL (6 h, tissue Plasma): 0.3 mg/dL | TC (6 h, tissue Plasma): 76.8 mg/dL | TG (6 h, tissue Plasma): 60 mg/dL | TP (6 h, tissue Plasma): 5.3 g/dL | gamma-GTP (6 h, tissue Plasma): 1.4 IU/L | TERMINAL_BW (9 h): 222.4 g | APTT (9 h): 16.3 s | Bas (9 h): 0% | Eos (9 h): 1% | Fbg (9 h): 207.2 mg/dL | Hb (9 h): 12.9 g/dL | Ht (9 h): 39.1% | Lym (9 h): 79.8% | MCH (9 h): 21.2 pg | MCHC (9 h): 33% | MCV (9 h): 64.5 fL | Mono (9 h): 5.4% | Neu (9 h): 14% | PT (9 h): 12.2 s | Plat (9 h): 118.8 x10_4/uL | RBC (9 h): 607 x10_4/ul | Ret (9 h): 7.9% | WBC (9 h): 89.1 x10_2/uL | KIDNEY_L (9 h): 1 g | KIDNEY_R (9 h): 1 g | KIDNEY_TOTAL (9 h): 2.1 g | LIVER (9 h): 9.6 g | ALP (9 h, tissue Plasma): 868 IU/L | ALT (9 h, tissue Plasma): 33.4 IU/L | AST (9 h, tissue Plasma): 60.2 IU/L | BUN (9 h, tissue Plasma): 13.4 mg/dL | CRE (9 h, tissue Plasma): 0.4 mg/dL | DBIL (9 h, tissue Plasma): 0.078 mg/dL | GLC (9 h, tissue Plasma): 200 mg/dL | IP (9 h, tissue Plasma): 10 mg/dL | K (9 h, tissue Plasma): 4.9 meq/L | LDH (9 h, tissue Plasma): 53.8 IU/L | Na (9 h, tissue Plasma): 137.8 meq/L | PL (9 h, tissue Plasma): 132.2 mg/dL | RALB (9 h, tissue Plasma): 3.6 g/dL | TBIL (9 h, tissue Plasma): 0.4 mg/dL | TC (9 h, tissue Plasma): 68.8 mg/dL | TG (9 h, tissue Plasma): 64.8 mg/dL | TP (9 h, tissue Plasma): 5.4 g/dL | gamma-GTP (9 h, tissue Plasma): 2 IU/L | TERMINAL_BW (24 h): 235.3 g | APTT (24 h): 15.7 s | Bas (24 h): 0% | Eos (24 h): 1.4% | Hb (24 h): 13.4 g/dL | Ht (24 h): 40.3% | Lym (24 h): 77.6% | MCH (24 h): 21.7 pg | MCHC (24 h): 33.1% | MCV (24 h): 65.6 fL | Mono (24 h): 5.8% | Neu (24 h): 15.4% | PT (24 h): 11.4 s | Plat (24 h): 115.5 x10_4/uL | RBC (24 h): 614.6 x10_4/ul | Ret (24 h): 9.1% | WBC (24 h): 114 x10_2/uL | KIDNEY_L (24 h): 1 g | KIDNEY_R (24 h): 1 g | KIDNEY_TOTAL (24 h): 2 g | LIVER (24 h): 11.7 g | ALP (24 h, tissue Plasma): 943.6 IU/L | ALT (24 h, tissue Plasma): 39 IU/L | AST (24 h, tissue Plasma): 65.2 IU/L | BUN (24 h, tissue Plasma): 18.2 mg/dL | CRE (24 h, tissue Plasma): 0.6 mg/dL | Ca (24 h, tissue Plasma): 11 mg/dL | DBIL (24 h, tissue Plasma): 0.082 mg/dL | GLC (24 h, tissue Plasma): 199.8 mg/dL | IP (24 h, tissue Plasma): 8.5 mg/dL | K (24 h, tissue Plasma): 4.6 meq/L | Na (24 h, tissue Plasma): 140.2 meq/L | PL (24 h, tissue Plasma): 146 mg/dL | RALB (24 h, tissue Plasma): 3.9 g/dL | TBIL (24 h, tissue Plasma): 0.3 mg/dL | TC (24 h, tissue Plasma): 76.8 mg/dL | TG (24 h, tissue Plasma): 95.8 mg/dL | TP (24 h, tissue Plasma): 5.7 g/dL
